Target: PI3Kδ kinase (Homo sapiens, UniProt O00329)
Assay: In vitro pharmacodynamics evaluation to PI3K kinases

Sequence of PI3Kδ kinase (O00329 whole entry): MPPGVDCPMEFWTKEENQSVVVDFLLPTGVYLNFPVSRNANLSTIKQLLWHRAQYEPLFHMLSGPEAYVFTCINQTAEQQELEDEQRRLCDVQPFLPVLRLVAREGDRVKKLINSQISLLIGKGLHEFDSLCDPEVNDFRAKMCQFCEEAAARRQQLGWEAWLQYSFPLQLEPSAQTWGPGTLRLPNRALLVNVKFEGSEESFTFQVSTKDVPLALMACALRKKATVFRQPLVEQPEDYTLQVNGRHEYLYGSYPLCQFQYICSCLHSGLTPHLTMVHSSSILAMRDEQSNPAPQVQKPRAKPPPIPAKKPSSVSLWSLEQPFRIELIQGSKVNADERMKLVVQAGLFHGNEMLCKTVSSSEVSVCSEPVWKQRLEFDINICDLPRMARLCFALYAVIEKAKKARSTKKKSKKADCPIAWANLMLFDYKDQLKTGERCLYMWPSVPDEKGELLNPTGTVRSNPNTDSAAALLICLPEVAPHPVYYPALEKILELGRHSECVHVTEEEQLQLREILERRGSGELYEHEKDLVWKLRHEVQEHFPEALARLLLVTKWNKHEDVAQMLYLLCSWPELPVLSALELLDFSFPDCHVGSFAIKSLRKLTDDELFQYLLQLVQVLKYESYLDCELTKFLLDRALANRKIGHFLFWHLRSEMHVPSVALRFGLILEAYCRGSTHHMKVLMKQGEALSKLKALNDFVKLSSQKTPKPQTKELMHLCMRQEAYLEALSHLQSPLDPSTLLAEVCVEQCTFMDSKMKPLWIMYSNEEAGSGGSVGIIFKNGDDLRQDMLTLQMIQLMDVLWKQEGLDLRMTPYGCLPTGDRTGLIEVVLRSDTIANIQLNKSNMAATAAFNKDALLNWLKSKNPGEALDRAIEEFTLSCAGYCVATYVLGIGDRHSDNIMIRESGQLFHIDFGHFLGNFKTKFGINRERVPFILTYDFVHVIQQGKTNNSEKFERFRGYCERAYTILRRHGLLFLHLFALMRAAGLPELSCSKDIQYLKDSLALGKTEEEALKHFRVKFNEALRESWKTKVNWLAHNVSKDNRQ
Sequence of PI3Kδ kinase (P27986 whole entry partner): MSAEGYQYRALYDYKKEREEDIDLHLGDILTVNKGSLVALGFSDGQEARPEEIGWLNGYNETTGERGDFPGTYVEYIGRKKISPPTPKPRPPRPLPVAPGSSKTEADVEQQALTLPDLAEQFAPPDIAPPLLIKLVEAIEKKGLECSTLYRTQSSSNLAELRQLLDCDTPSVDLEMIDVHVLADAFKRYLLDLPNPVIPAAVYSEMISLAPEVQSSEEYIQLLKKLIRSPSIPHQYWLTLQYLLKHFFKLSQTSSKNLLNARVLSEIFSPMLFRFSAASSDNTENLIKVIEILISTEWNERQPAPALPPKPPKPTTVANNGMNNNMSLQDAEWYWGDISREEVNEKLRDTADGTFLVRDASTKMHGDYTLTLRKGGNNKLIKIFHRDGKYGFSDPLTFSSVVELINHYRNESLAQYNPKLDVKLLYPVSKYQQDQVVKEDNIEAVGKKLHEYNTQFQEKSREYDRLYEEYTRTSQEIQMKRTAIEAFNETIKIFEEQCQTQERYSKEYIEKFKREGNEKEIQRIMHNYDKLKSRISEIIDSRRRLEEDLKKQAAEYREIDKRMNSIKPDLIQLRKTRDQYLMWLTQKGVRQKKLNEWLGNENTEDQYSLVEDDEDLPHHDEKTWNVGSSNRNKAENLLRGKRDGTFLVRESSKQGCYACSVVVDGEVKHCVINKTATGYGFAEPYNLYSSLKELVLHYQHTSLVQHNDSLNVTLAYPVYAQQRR

IC50 | SMILES
< 0.02 µM | [2H][C@@](C)(Nc1ncnc2[nH]cnc12)c1nc2ccc(F)cc2c(=O)n1-c1ccccc1 [Example 8, (S)-2-(1-(9H-purin-6-yl-amino)-1-d-ethyl)-6-fluoro-3-phenyl quinazoline-4(3H)-ketone]
< 0.02 µM | [2H]C([2H])([2H])[C@]([2H])(Nc1ncnc2[nH]cnc12)c1nc2ccc(F)cc2c(=O)n1-c1ccccc1 [Example 9, (S)-2-(1-(9H-purin-6-yl-amino)-1,2,2,2-d4-ethyl)-6-fluoro-3-phenyl quinazoline-4(3H)-ketone]
< 0.02 µM | [2H]C([2H])([2H])[C@H](Nc1ncnc2[nH]cnc12)c1nc2ccc(F)cc2c(=O)n1-c1ccccc1 [Example 10, (S)-2-(1-(9H-purin-6-yl-amino)-2,2,2-d3-ethyl)-6-fluoro-3-phenyl quinazoline-4(3H)-ketone]

Reference: patent publication US10414767B2, “Deuterated quinazolinone compound and pharmaceutical composition comprising same” (Suzhou Zelgen Biopharmaceuticals Co., Ltd., priority 2014, dated 2019)
